According to ChEMBL document CHEMBL1151041, “Synthesis and antitumor evaluation of 2-oxycarbonylpaclitaxels (paclitaxel-2-carbonates)” (Bioorg Med Chem Lett, 1994):
Active and inactive are the calls of the source. The calls are words filed in the database; no cut-off is given here.

What was measured:
Rattus norvegicus [1] = species: Rattus norvegicus; assay: Tested for tubulin polymerization assay in rat; Inactive; assay type: functional, organism-based
M109 [2] = assay: In vivo antitumor activity expressed as percent median survival time of treated mice to saline treated mice against murine lung carcinoma M109 at 90 mg/kg (ip) on days 5 and 8; assay type: functional, Mus musculus
HCT-116 = assay: Compound was tested for its cytotoxicity against human colon cancer cell line HCT116; assay type: functional, cell-based
Rattus norvegicus [3] = species: Rattus norvegicus; assay: Tested to promote microtubule assembly by tubulin polymerization assay in rat plasma at 37 degree C for 18 hr; Active; assay type: functional, organism-based
M109 [4] = assay: In vivo antitumor activity expressed as percent median survival time of treated mice to saline treated mice against murine lung carcinoma M109 at 90 mg/kg (ip) on days 1, 5 and 9; assay type: functional, Mus musculus
M109 [5] = assay: In vivo antitumor activity expressed as percent median survival time of treated mice to saline treated mice against murine lung carcinoma M109 at 75 mg/kg (ip) on days 5 and 8 reference to 3i; assay type: functional, Mus musculus
M109 [6] = assay: In vivo antitumor activity expressed as percent median survival time of treated mice to saline treated mice against murine lung carcinoma M109 at 30 mg/kg (ip) on days 1, 5 and 9 reference to 3d; assay type: functional, Mus musculus
M109 [7] = assay: In vivo antitumor activity expressed as percent median survival time of treated mice to saline treated mice against murine lung carcinoma M109 at 75 mg/kg (ip) on days 5 and 8 reference to 3a; assay type: functional, Mus musculus
M109 [8] = assay: In vivo antitumor activity expressed as percent median survival time of treated mice to saline treated mice against murine lung carcinoma M109 at 50 mg/kg (ip) on days 1, 5 and 9 reference to 3e; assay type: functional, Mus musculus
M109 [9] = assay: In vivo antitumor activity expressed as percent median survival time of treated mice to saline treated mice against murine lung carcinoma M109 at 75 mg/kg (ip) on days 5 and 8 reference to 3h; assay type: functional, Mus musculus
M109 [10] = assay: In vivo antitumor activity expressed as percent median survival time of treated mice to saline treated control against murine lung carcinoma M109 at 50 mg/kg (ip) on days 5 and 8 reference to 3c; assay type: functional, Mus musculus
M109 [11] = assay: In vivo antitumor activity expressed as percent median survival time of treated mice to saline treated mice against murine lung carcinoma M109 at 75 mg/kg (ip) on days 5 and 8 reference to 3g; assay type: functional, Mus musculus
M109 [12] = assay: In vivo antitumor activity expressed as percent median survival time of treated mice to saline treated mice against murine lung carcinoma M109 at 30 mg/kg (ip) on days 1, 5 and 9 reference to 3b; assay type: functional, Mus musculus
M109 [13] = assay: In vivo antitumor activity expressed as percent median survival time of treated mice to saline treated mice against murine lung carcinoma M109 at 30 mg/kg (ip) on days 1, 5 and 9 reference to 3f; assay type: functional, Mus musculus

Structure (SMILES)	Activity (Rattus norvegicus [1])	T/C (M109 [2]) [%]	IC50 (HCT-116) [nM]	T/C (M109 [4]) [%]	other results
CC(=O)O[C@H]1C(=O)[C@@]2(C)C([C@H](OC(=O)c3ccccc3)[C@]3(O)C[C@H](OC(=O)[C@H](OC(=O)Oc4cccc(N(C)C)c4)[C@@H](NC(=O)c4ccccc4)c4ccccc4)C(C)=C1C3(C)C)[C@]1(OC(C)=O)COC1C[C@@H]2O (stereo partly specified)	inactive	226	16		
CCOC(=O)O[C@@H](C(=O)O[C@H]1C[C@@]2(O)[C@@H](OC(=O)c3ccccc3)C3[C@]4(OC(C)=O)COC4C[C@H](O)[C@@]3(C)C(=O)[C@H](OC(C)=O)C(=C1C)C2(C)C)[C@@H](NC(=O)c1ccccc1)c1ccccc1 (stereo partly specified)			30	>475	Activity (Rattus norvegicus [3]): Active
CC(=O)O[C@H]1C(=O)[C@@]2(C)C([C@H](OC(=O)c3ccccc3)[C@]3(O)C[C@H](OC(=O)[C@H](OC(=O)OCCl)[C@@H](NC(=O)c4ccccc4)c4ccccc4)C(C)=C1C3(C)C)[C@]1(OC(C)=O)COC1C[C@@H]2O (stereo partly specified)	inactive		30	275	
CC(=O)O[C@H]1C(=O)[C@@]2(C)[C@H]([C@H](OC(=O)c3ccccc3)[C@]3(O)C[C@H](OC(=O)[C@H](O)[C@@H](NC(=O)c4ccccc4)c4ccccc4)C(C)=C1C3(C)C)[C@]1(OC(C)=O)CO[C@@H]1C[C@@H]2O [PACLITAXEL]					T/C (M109 [5]): 262%; T/C (M109 [6]): 275%; T/C (M109 [7]): 276%; T/C (M109 [8]): 270%; T/C (M109 [9]): 262%; T/C (M109 [10]): 197%; T/C (M109 [11]): 262%; T/C (M109 [12]): 275%; T/C (M109 [13]): 275%
CC(=O)O[C@H]1C(=O)[C@@]2(C)C([C@H](OC(=O)c3ccccc3)[C@]3(O)C[C@H](OC(=O)[C@H](OC(=O)OCc4ccccc4)[C@@H](NC(=O)c4ccccc4)c4ccccc4)C(C)=C1C3(C)C)[C@]1(OC(C)=O)COC1C[C@@H]2O (stereo partly specified)	inactive		30	310	
COC(=O)O[C@@H](C(=O)O[C@H]1C[C@@]2(O)[C@@H](OC(=O)c3ccccc3)C3[C@]4(OC(C)=O)COC4C[C@H](O)[C@@]3(C)C(=O)[C@H](OC(C)=O)C(=C1C)C2(C)C)[C@@H](NC(=O)c1ccccc1)c1ccccc1 (stereo partly specified)		162	> 80		Activity (Rattus norvegicus [3]): Active
C=C(C)OC(=O)O[C@@H](C(=O)O[C@H]1C[C@@]2(O)[C@@H](OC(=O)c3ccccc3)C3[C@]4(OC(C)=O)COC4C[C@H](O)[C@@]3(C)C(=O)[C@H](OC(C)=O)C(=C1C)C2(C)C)[C@@H](NC(=O)c1ccccc1)c1ccccc1 (stereo partly specified)	inactive	235	< 15		
CC(=O)O[C@H]1C(=O)[C@@]2(C)C([C@H](OC(=O)c3ccccc3)[C@]3(O)C[C@H](OC(=O)[C@H](OC(=O)OC(C)C)[C@@H](NC(=O)c4ccccc4)c4ccccc4)C(C)=C1C3(C)C)[C@]1(OC(C)=O)COC1C[C@@H]2O (stereo partly specified)	inactive	247	> 80		
C=COC(=O)O[C@@H](C(=O)O[C@H]1C[C@@]2(O)[C@@H](OC(=O)c3ccccc3)C3[C@]4(OC(C)=O)COC4C[C@H](O)[C@@]3(C)C(=O)[C@H](OC(C)=O)C(=C1C)C2(C)C)[C@@H](NC(=O)c1ccccc1)c1ccccc1 (stereo partly specified)	inactive		40	>475	
CC(=O)O[C@H]1C(=O)[C@@]2(C)C([C@H](OC(=O)c3ccccc3)[C@]3(O)C[C@H](OC(=O)[C@H](OC(=O)Oc4ccccc4)[C@@H](NC(=O)c4ccccc4)c4ccccc4)C(C)=C1C3(C)C)[C@]1(OC(C)=O)COC1C[C@@H]2O (stereo partly specified)	inactive	203	7		
